{
  "source": "patent US8940897B2",
  "about": "“1,3,4-oxadiazole and 1,3,4-thiadiazole β-lactamase inhibitors” (priority 2012, dated 2015)",
  "note": "Counter-ions that a name gives are not always drawn.",
  "data": [
    {"test_system": "bacterial strains that express the class D cephalosporinase OXA-15", "assay": "Synergy MIC / standard BLI potentiation MIC assay, strains expressing OXA-15;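 also: more active means a lower MIC or sMIC than Avibactam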", "assay_type": "cell-based, E. coli", "settings": "in the presence of a β-lactam; comparator Avibactam (CCC)", "protocol": "Unless otherwise indicated, the activity of the BLI compounds can be described by the MIC value obtained from a Synergy MIC assay or a BLI potentiation assay (e.g as described herein), both of which are run in the presence of a β-lactam.\nThe experimental protocol was performed according to Clinical and Laboratory Standards Institute (CLSI) guidelines with modifications as described below (CLSI guidelines can be derived from the CLSI document M07-A9 published in January 2012: “Methods for Dilution Antimicrobial Susceptibility Tests for Bacteria That Grow Aerobically; Approved Standard-Ninth Edition”).\nTo prepare for MIC testing, frozen glycerol stocks of clinical isolates (Klebsiella pneumoniae, Eschericia coli, Enterobacter spp, Citrobacter spp, or Pseudomonas aeruginosa) were used to streak for isolated colonies on rich, non-selective, tryptic soy agar containing 5% sheep's blood (TSAB). Frozen glycerol stocks of laboratory engineered, isogenic E. coli strains, which contain cloned β-lactamase expressing plasmids were used to streak for isolated colonies on rich, selective LB agar supplemented with 25 μg/mL tetracycline to maintain the plasmid. All strains were incubated at 37° C. for 18-24 hrs.\nOn the day of testing, primary cultures were started by scraping off 5-10 colonies from the TSAB plates containing clinical strains or the tetracycline supplemented LB plates containing engineered strains. The clinical strain material was suspended in ˜5 mL of cation adjusted Mueller Hinton Broth (CAMHB) in 14 mL culture tubes. The engineered strain material was suspended in CAMHB (supplemented with 25 μg/mL tetracycline) in 14 mL culture tubes. All strains were incubated at 37° C. with aeration (200 rpm) for ˜2 hrs until the optical density at 600 nm (OD600) was ≧0.1.\nThe two compound components of the assay were each diluted in CAMHB and added to the 96-well broth microdilution assay plates. 50 μL of the β-lactam was added to each well of the assay plate in 2-fold dilutions with final concentrations ranging from 128 to 0.13 μg/mL. 25 μL of the BLI compound was added to all wells in the broth microdilution plates at a final concentration of 4 μg/mL. Inoculum cultures were prepared by standardizing the primary cultures to OD600=0.1 and then adding 20 μL of the adjusted primary culture per 1 mL CAMHB for clinical strains or CAMHB (supplemented with tetracycline at 100 μg/mL) for engineered strains, so that the final inoculum density was ˜10^5 colony forming units per milliliter. Diluted inoculum cultures were used to inoculate 25 μl, per well in 96-well broth microdilution assay plates. The final volume of each well was 100 μL and contained a β-lactam at different concentrations, a BLIcompound at 4 μg/mL concentration, the bacterial culture at an OD600 of approximately 0.001 and when necessary tetracycline at 25 μg/mL.\nPlates were incubated for 18-20 hours at 37° C. with aeration (200 rpm). Following incubation, growth was confirmed visually placing plates over a viewing apparatus (stand with a mirror underneath) and then OD600 was measured using a SpectraMax 340PC384 plate reader (Molecular Devices, Sunnyvale, Calif.). Growth was defined as turbidity that could be detected with the naked eye or achieving minimum OD600 of 0.1. MIC values were defined as the lowest concentration producing no visible turbidity.\nThe synergy MIC (sMIC) assay determines the concentration of the BLI required to potentiate the activity of a fixed concentration of a β-lactam antibiotic against β-lactamase producing bacterial strains. The experimental protocol was performed according to Clinical and Laboratory Standards Institute (CLSI) guidelines with modifications as described below (CLSI guidelines can be derived from the CLSI document M07-A9 published in January 2012: “Methods for Dilution Antimicrobial Susceptibility Tests for Bacteria That Grow Aerobically; Approved Standard-Ninth Edition”). […]", "values": [
      {"smiles": "N=C(N)NCc1nnc([C@@H]2CC[C@@H]3CN2C(=O)N3OS(=O)(=O)O)o1", "note": "[Compound 704, (2S,5R)-2-(5-(guanidinomethyl)-1,3,4-oxadiazol-2-yl)-7-oxo-1,6-diazabicyclo[3.2.1]octan-6-yl hydrogen sulfate]", "activity against bacterial strains that express OXA-15 β-lactamase compared with Avibactam": "more active than Avibactam"},
      {"smiles": "Nc1nnc([C@@H]2CC[C@@H]3CN2C(=O)N3OS(=O)(=O)O)o1", "note": "[Compound 707, (2S,5R)-2-(5-amino-1,3,4-oxadiazol-2-yl)-7-oxo-1,6-diazabicyclo[3.2.1]octan-6-yl hydrogen sulfate]", "activity against bacterial strains that express OXA-15 β-lactamase compared with Avibactam": "more active than Avibactam"},
      {"smiles": "N=C(N)N1CCC(c2nnc([C@@H]3CC[C@@H]4CN3C(=O)N4OS(=O)(=O)O)o2)CC1", "note": "[Compound 712, (2S,5R)-2-(5-(1-carbamimidoylpiperidin-4-yl)-1,3,4-oxadiazol-2-yl)-7-oxo-1,6-diazabicyclo[3.2.1]octan-6-yl hydrogen sulfate]", "activity against bacterial strains that express OXA-15 β-lactamase compared with Avibactam": "more active than Avibactam"},
      {"smiles": "O=C1N2C[C@@H](CC[C@H]2c2nnc(N3CCNCC3)o2)N1OS(=O)(=O)O", "note": "[Compound 713, (2S,5R)-7-oxo-2-(5-(piperazin-1-yl)-1,3,4-oxadiazol-2-yl)-1,6-diazabicyclo[3.2.1]octan-6-yl hydrogen sulfate]", "activity against bacterial strains that express OXA-15 β-lactamase compared with Avibactam": "more active than Avibactam"},
      {"smiles": "N=C(N)NCCCc1nnc([C@@H]2CC[C@@H]3CN2C(=O)N3OS(=O)(=O)O)o1", "note": "[Compound 714, (2S,5R)-2-(5-(3-guanidinopropyl)-1,3,4-oxadiazol-2-yl)-7-oxo-1,6-diazabicyclo[3.2.1]octan-6-yl hydrogen sulfate]", "activity against bacterial strains that express OXA-15 β-lactamase compared with Avibactam": "more active than Avibactam"},
      {"smiles": "NCC(O)c1nnc([C@@H]2CC[C@@H]3CN2C(=O)N3OS(=O)(=O)O)o1", "note": "(stereo partly drawn) [Compound 715, (2S,5R)-2-(5-(2-amino-1-hydroxyethyl)-1,3,4-oxadiazol-2-yl)-7-oxo-1,6-diazabicyclo[3.2.1]octan-6-yl hydrogen sulfate]", "activity against bacterial strains that express OXA-15 β-lactamase compared with Avibactam": "more active than Avibactam"},
      {"smiles": "NCCNCCc1nnc([C@@H]2CC[C@@H]3CN2C(=O)N3OS(=O)(=O)O)o1", "note": "[Compound 716, (2S,5R)-2-(5-(2-((2-aminoethyl)amino)ethyl)-1,3,4-oxadiazol-2-yl)-7-oxo-1,6-diazabicyclo[3.2.1]octan-6-yl hydrogen sulfate]", "activity against bacterial strains that express OXA-15 β-lactamase compared with Avibactam": "more active than Avibactam"},
      {"smiles": "NCC(N)c1nnc([C@@H]2CC[C@@H]3CN2C(=O)N3OS(=O)(=O)O)o1", "note": "(stereo partly drawn) [Compound 717, (2S,5R)-2-(5-(1,2-diaminoethyl)-1,3,4-oxadiazol-2-yl)-7-oxo-1,6-diazabicyclo[3.2.1]octan-6-yl hydrogen sulfate]", "activity against bacterial strains that express OXA-15 β-lactamase compared with Avibactam": "more active than Avibactam"},
      {"smiles": "O=C1N2C[C@@H](CC[C@H]2c2nnc(C3CCNCC3)s2)N1OS(=O)(=O)O", "note": "[Compound 719, (2S,5R)-7-oxo-2-(5-(piperidin-4-yl)-1,3,4-thiadiazol-2-yl)-1,6-diazabicyclo[3.2.1]octan-6-yl hydrogen sulfate]", "activity against bacterial strains that express OXA-15 β-lactamase compared with Avibactam": "more active than Avibactam"},
      {"smiles": "O=C1N2C[C@@H](CC[C@H]2c2nnc(CC3CNC3)o2)N1OS(=O)(=O)O", "note": "[Compound 725, (2S,5R)-2-(5-(azetidin-3-ylmethyl)-1,3,4-oxadiazol-2-yl)-7-oxo-1,6-diazabicyclo[3.2.1]octan-6-yl hydrogen sulfate]", "activity against bacterial strains that express OXA-15 β-lactamase compared with Avibactam": "more active than Avibactam"},
      {"smiles": "NCC(O)Cc1nnc([C@@H]2CC[C@@H]3CN2C(=O)N3OS(=O)(=O)O)o1", "note": "(stereo partly drawn) [Compound 733, (2S,5R)-2-(5-(3-amino-2-hydroxypropyl)-1,3,4-oxadiazol-2-yl)-7-oxo-1,6-diazabicyclo[3.2.1]octan-6-yl hydrogen sulfate]", "activity against bacterial strains that express OXA-15 β-lactamase compared with Avibactam": "more active than Avibactam"}
    ]}
  ]
}
